How the values were obtained:
H308 monoclonal antibody = test: Inhibition of H308 monoclonal antibody by phosphorylated haptens (liposomal-ELISA); type: binding, mouse; settings: 0.2 μmoles of hapten
Description: Studies on inhibition of anti-lipidic particles antibodies were carried out using liposomes as antigens and the antigen-antibody reaction was analyzed by the liposomal-ELISA method, which includes the following steps:
A) A first step of addition and incubation, in which an effective quantity of an antigen suspension is added to each one of the wells of the ELISA microtiter plate. This microtiter plate is selected among those with a high lipidic antigens binding property and said microtiter plate is incubated between 25 to 30° C. for 0.25 to 2 h.
B) A second step of addition and incubation, in which an effective quantity of a blocking solution is added to each one of the wells of the ELISA microtiter plate with a high lipidic antigens binding property, and said microtiter plate being incubated at a temperature between 25 to 30° C. for 0.25 to 2 h.
C) A step of elimination of blocking solution, preferably by suction, avoiding that microtiter plate becomes dry when blocking solution is eliminated, because liposomal antigens can be damaged.
D) A step of inhibition of the antibody porter, in which the antibody porter is incubated with a chemical substance, or hapten, that will inhibit the active site that recognizes the antigen in the antibody porter.
E) A third step of addition and incubation, in which an effective quantity of the antibody porter inhibited by the hapten was quickly added, to avoid that microtiter plate becomes dry, to each one of the wells using an antibody porter dilution from 1:5 to 1:1000 into blocking solution. This microtiter plate being incubated for 0.25 to 2 h at a temperature between 25 to 30° C.
F) A first step of washing, in which the microtiter plate is washed with the blocking solution, preferably repeating 4-times and avoiding that microtiter plate becomes dry when eliminating the blocking solution.
G) A fourth step of addition and incubation, in which an effective quantity of a second antibody is added to each one of the wells of microtiter plate. This plate is incubated in the darkness for 0.25 to 2 h at a temperature between 25 to 30° C. Second antibody is selected preferably among antibodies from a different specie to that of the antibody porter and they can be anti-Fc of human IgG, IgA and IgM or of the animal in study, or antibodies anti-Fc of IgM or of IgG depending on the nature of the monoclonal antibody when this is the antibody porter. Second antibody is used in a final dilution into blocking solution between […] and 1:3500 and it is conjugated to an enzyme preferably to peroxidase.
H) A second step of washing, in which the microtiter plate is washed with the blocking solution, preferably repeating 4-times and avoiding that microtiter plate becomes dry when eliminating the blocking solution.
I) A fifth step of addition and incubation, in which an effective quantity of the peroxidase sustrates is added to each one of the wells and this microtiter plate is incubated for 0.1 to 0.5 h at a temperature between .35 and 40° C., stopping the peroxidase reaction by adding an effective quantity of sulfuric acid.
J) A step of analysis, in which microtiter plate is analyzed using a reading device for ELISA plates, preferably at 492 nm.
In a specific embodiment, the hapten solution is obtained dissolving hapten in a buffer solution at pH between 7.0 and 7.4, in a relationship from 0.1 to 10 mmoles of hapten per liter of buffer solution.
Costar microtiter plates, with 96 flat-bottom wells with a high lipidic antigens binding property (Costar Co. Cambrige, USA) were coated by the addition to each one of the wells of 100 μl of liposomes made from egg-yolk phosphatidylcholine:phosphatidate (2:1 molar ratio) in Tris-NaCl buffer (10 mM, 1 mM) pH 7, containing 0.1 μmol of phosphatidate, and treated with 5 mM CaCl2 to induce lipidic particles formation. Microtiter plates were incubated at room temperature for 1 h and they were blocked for 1 h at room temperature in a similar way as was described in Example 1. […]

BALB/c female mice = test: Treatment of the pathology induced by H308 monoclonal antibody in mice; type: in vivo, mouse
Description: H308 monoclonal antibody was administered by intraperitoneal injection of 1 μg each week during two months to BALB/c female mice, and simultaneously the glycerolphosphorylcholine hapten was administered at 2.5 mg/Kg, of body weight, doses by intravenous injection each 24 hs, for 2-months.
Spermidine was administered, as chlorhydrate, in a dose of 1 mg/Kg, of body weight, by intraperitoneal injection each 24 hs, during two months.

[1] = system: anti-lipidic particles antibodies from sera of patients with the antiphospholipid syndrome; test: Hapten inhibition of anti-lipidic particles antibodies from patients' sera (liposomal-ELISA); type: binding, human; settings: 0.2 μmoles hapten, 30 min at 30° C.
Description: Costar microtiter plates, with 96 flat-bottom wells with a high lipidic antigens binding property (Costar Co. Cambrige, USA) were coated by the addition to each one of the wells of 100 μl of liposomes made from egg-yolk phosphatidylcholine:phosphatidate (2:1 molar ratio) in Tris-NaCl buffer (10 mM, 1 mM) pH 7, containing 0.1 μmol of phosphatidate, and treated with 5 mM CaCl2 to induce lipidic particles formation.
Aliquots of 100 μl of patients' sera that were analyzed in Examples 1 and 2B were incubated with 100 μl of 0.2 μmoles of glycerolphosphorylcholine for 30 min at 30° C. Later on, blocked patients sera were added to the wells of the microtiter plate and the liposomal-ELISA method was applied as it was described in Example 1. Peroxidase-conjugated goat anti-Fc of human IgG, IgA and IgM antibodies were used as second antibody.

## C[N+](C)(C)CCOP(=O)([O-])OC[C@H](O)CO [glycerolphosphorylcholine]
H308 monoclonal antibody
  inhibition of H308 monoclonal antibody: 100%
BALB/c female mice; hapten 2.5 mg/Kg intravenous each 24 hs for 2-months, H308 1 μg i.p. each week
  inhibition of the development of mice pathology by H308 monoclonal antibody: 40%
BALB/c female mice; of body weight, BALB/c female mice given H308
  therapeutically effective quantity: 2.5 mg/kg
[1]
  inhibition in the immunoreaction of patients sera with lipidic particles in liposomes: 100%

Source: patent US6777193B1, “Methods for diagnostic and/or treatment of antiphospholipids antibodies-related diseases, and devices” (Escuela Nacional de Ciencias Biologicas, del Instituto …, priority 2000, dated 2004)
